Laboratory results from article PMC3789652 (Journal of pharmaceutical sciences, 2011).

Assays:
[1] = n-octanol / sodium phosphate buffer; format: physicochemical; settings: n-octanol/sodium phosphate buffer pH 7.4, 0.15 M, room temperature; mean ± SD, n = 6
plasma proteins [2] = assay: plasma free fraction by ultrafiltration, human plasma; format: in vitro ADME; settings: mean ± SD, n = 3; for mlogDpr/pl Human: log10[(1−fp)/fp]; for fP Human: ultrafiltration, room temperature
plasma proteins [3] = assay: plasma free fraction by ultrafiltration, monkey plasma; format: in vitro ADME, rhesus monkeys (Macaca mulatta); settings: mean ± SD, n = 3; for fP Monkey: arterial monkey plasma, ultrafiltration, room temperature; for mlogDpr/pl Monkey: log10[(1−fp)/fp], monkey plasma

Structure (SMILES) | mlogD [1] | mlogDpr/pl Human (plasma proteins [2]) | fP Human (plasma proteins [2]) | fP Monkey (plasma proteins [3]) | mlogDpr/pl Monkey (plasma proteins [3])
N#Cc1cc(F)cc(C#Cc2csc(CF)n2)c1 [Radiotracer 4, 3-fluoro-5-(2-(2-(fluoromethyl)thiazol-4-yl)ethynyl)benzonitrile] | 2.18 ± 0.22 | 1.25 ± 0.13 | 0.0550 ± 0.0165 | – | –
CN([11CH3])C(=O)C(CCN1CCC(O)(c2ccc(Cl)cc2)CC1)(c1ccccc1)c1ccccc1 [Radiotracer 7, [N-methyl-^11C]N-desmethyl-loperamide] | – | – | 0.123 ± 0.015 | – | –
COc1ccccc1N1CCN(CCCCn2ncc(=O)n(C)c2=O)CC1 [Radiotracer 1, [O-methyl-^11C]2-(4-(4-(2-methoxyphenyl)piperazin-1-yl)butyl)-4-methyl-1,2,4-triazine-3,5(2H,4H)dione] | 1.13 ± 0.02 | 0.101 ± 0.006 | – | 0.594 ± 0.016 | −0.165 ± 0.029
[2H]C([18F])Oc1cccc([C@H]2C[C@@H](N[C@H](C)c3ccccc3)C(=O)N2c2ccc(C(F)(F)F)cc2)c1 (stereo partly shown) [Radiotracer 18] | 4.24 ± 0.08 | 2.31 ± 0.14 | 0.0050 ± 0.0017 | 0.0041 ± 0.0001 | 2.39 ± 0.01
